Assay results published in patent publication US20070027118A1 (priority 2005, published 2007).
Like-named read-outs stand apart in the source and are kept apart here.

How the values were obtained:
11β-hsd-1 enzyme [1] = target: T1, 11β-hsd-1 enzyme (Homo sapiens, UniProt P28845); assay: biochemical
Procedure: The 11β-hsd-1 assay was performed in a 100 mM Triethanolamine buffer pH 8.0, containing 200 mM NaCl, 0.02% n-dodecyl β-D-maltoside, 5% glycerol, 5 mM β-mercaptoethanol. A typical reaction for the determination of Kiapp values was carried at R.T. in a Corning® u-bottom 96-well plate and is described as follows: 11β-hsd-1 enzyme (5 nM, final concentration) was pre-incubated in the presence of the inhibitor and NADPH (500 μM, final concentration) for at least 30 minutes in the assay buffer. When pre-incubation was completed, the reaction was initiated by adding the regenerating system (2 mM Glucose-6-Phosphate, 1U/mL Glucose-6-Phosphate dehydrogenase, and 6 mM MgCl2, all the concentration reported are final in the assay buffer), and 3H-cortisone (200 nM, final concentration). After 60 minutes, 60 μL of the assay mixture was transferred to a second 96-well plate and mixed with an equal volume of dimethylsulfoxide to stop the reaction. A 15 μL aliquot from the reaction mixture was loaded into a C-18 column (Polaris C18-A, 50×4.6 mm, 5 μ, 180 Angstrom from Varian) connected to an automated High-throughput Liquid Chromatography instrument developed by Cohesive Technologies Inc, of Franklin, Mass. USA, with a β-RAM model 3 Radio-HPLC detector from IN/US, of Tampa, Fla. USA. The substrate and product peaks were separated by using an isocratic mixture of 43:57 methanol to water (v/v) at a flow rate of 1.0 mL/min.
The initial reaction velocities were measured by stopping the reaction at 60 min and by measuring the area of product formation in the absence and the presence of various concentrations of inhibitors. The Kiapp values were determined using the equation for tight-binding inhibitor developed by Morrison, J. F. (Morrison J. F. Biochim BiophysActa. 1969; 185: 269-86).
The radiolabeled [1,2-3H]-cortisone is commercially available from American Radiolabeled Chemicals Inc of St. Louis, Mo. USA. NADPH, Glucose-6-Phosphate, and Glucose-6-Phosphate dehydrogenase were purchased from Sigma®.
(Morrison J. F. Biochim Biophys Acta. 1969; 185: 269-86).

11β-hsd-1 enzyme [2] = target: T1, 11β-hsd-1 enzyme; assay: biochemical; settings: for inhibition at 100 µM / inhibition: read-out: % Inh @ 0.1 mM; for inhibition at 0.1 µM: read-out: % Inh @ 0.1 μM
How it was run: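 Human 11β-HSD-1 (5 nM) pre-incubated ≥30 min with inhibitor and 500 μM NADPH in triethanolamine buffer pH 8.0 with NaCl, n-dodecyl β-D-maltoside and β-ME; reaction started with G6P/G6PDH/MgCl2 regenerating system and 200 nM 3H-cortisone, run 60 min, stopped with DMSO. 3H-cortisol and substrate separated by radio-HPLC; percent inhibition from peak areas.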

[3] = Table 2, inhibitor 0.1 mM as printed

T1 sequence (P28845 whole entry, species assumed): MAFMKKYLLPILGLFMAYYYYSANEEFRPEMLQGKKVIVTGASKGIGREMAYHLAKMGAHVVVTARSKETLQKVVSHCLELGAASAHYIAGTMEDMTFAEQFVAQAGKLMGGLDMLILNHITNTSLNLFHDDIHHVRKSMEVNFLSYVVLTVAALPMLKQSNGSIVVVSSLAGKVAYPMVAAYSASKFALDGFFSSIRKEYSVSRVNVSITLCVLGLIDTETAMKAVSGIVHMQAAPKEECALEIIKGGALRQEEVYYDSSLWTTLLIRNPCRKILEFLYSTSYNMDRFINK

Compound	Ki (11β-hsd-1 enzyme [1])	inhibition at 0.1 µM (11β-hsd-1 enzyme [2])	inhibition (11β-hsd-1 enzyme [2])	also measured
Cc1ccc(N2CCN(S(=O)(=O)Nc3cccc(C)n3)CC2=O)cc1 [Example 140, 4-(4-methylphenyl)-N-(6-methylpyridin-2-yl)-3-oxopiperazine-1-sulfoflamide]	250 nM	–	–	inhibition at 100 µM (11β-hsd-1 enzyme [2]; [3]): 85.7%
CCN(CC)C(=O)Cc1cccc(NS(=O)(=O)N2CCc3ccccc3CC2)n1 [Example 17, N,N-diethyl-2-{6-[(1,2,4,5-tetrahydro-3H-3-benzazepin-3-ylsulfonyl)amino]pyridin-2-yl}acetamide]	5.7 nM	100%	–	–
CCc1cccc(NS(=O)(=O)N2CCCN(c3nc4cc(Cl)ccc4o3)CC2)n1 [Example 150, 4-(5-chloro-13-benzoxazol-2-yl)-N-(6-ethylpyridin-2-yl)-14-diazepane-1-sulfonamide]	23 nM	–	90.3%	–
Cc1cccc(NS(=O)(=O)N2CCN(c3ncccc3C#N)CC2)n1 [Example 132, 4-(3-cyanopyridin-2-yl)-N-(6-methylpyridin-2-yl)piperazine-1-sulfonamide]	46 nM	–	74.8%	–
COc1ccc(-c2cnc(N3CCN(S(=O)(=O)Nc4cccc(C)n4)CC3)nc2)cc1 [Example 151, 4-[5-(4-methoxyphenyl)-pyrimidin-2-yl]-N-(6-methylpyridin-2-yl)piperazine-1-sulfonamide]	1 nM	–	100%	–
Cc1cccc(NS(=O)(=O)N2CCC(F)(c3ccc(C#N)cc3)CC2)n1 [Example 25, 4-(4-cyanophenyl)-4-fluoro-N-(6-methylpyridin-2-yl)piper-idine-1-sulfonamide]	63.5 nM	–	–	inhibition at 0.1 µM (11β-hsd-1 enzyme [2]; Table 1, inhibitor 0.1 μM): 50%
Cc1cccc(NS(=O)(=O)N2CCCC(c3ccccc3)CC2)n1 (stereo not shown) [Example 84, N-(6-methylpyridin-2-yl)-4-phenylazepane-1-sulfonamide]	8.2 nM	–	100%	–
CCOC(=O)Cc1cccc(NS(=O)(=O)N2CCc3ccccc3CC2)n1 [Example 15, Ethyl {6-[(1,2,4,5-tetrahydro-3H-3-benzazepin-3-ylsulfonyl)amino]pyridin-2-yl}acetate]	2 nM	100%	–	–
Cc1cccc(NS(=O)(=O)N2CCOC(COc3cc(F)cc(F)c3)C2)n1 (stereo not shown) [Example 83, 2-[(35-difluorophenoxy)meth-yl]-N-(6-methylpyridin-2-yl)morpholine-4-sulfonamide]	110 nM	–	71.2%	–
CCc1cccc(NS(=O)(=O)N2CCCN(c3ccc(C(F)(F)F)cn3)CC2)n1 [Example 43]	12 nM	93%	–	–
Cc1cccc(NS(=O)(=O)N2CCCCCCC2)n1 [Example 127, N-(6-methylpyridin-2-yl)azocane-1-sulfonamide]	25 nM	–	91.8%	–
CCc1cccc(NS(=O)(=O)N2CCCC(F)(F)C2)n1 [Example 101, N-(6-ethylpyridin-2-yl)-33-difluoropiperidine-1-sulfonamide]	34 nM	–	78.3%	–
4-(6-chloro-13-benzoxazol-2- yl)-N-quinolin-2-ylpiperazine- 1-sulfonamide [Example 167]	–	–	–	Ki (11β-hsd-1 enzyme [1]; read-out: Klapp, Table 2, 5 nM enzyme, 200 nM 3H-cortisone, 500 μM NADPH): 3.4 nM; % Inh @ 0.1 mM (11β-hsd-1 enzyme [2]; [3]): 100%
Cc1cc(C)nc(NS(=O)(=O)N2CCN(c3ccc(C#N)cn3)CC2)c1 [Example 9]	14 nM	86.5%	–	–
CC(C)c1cccc(NS(=O)(=O)N2CCC(c3ccc(C#N)cn3)CC2)n1 [Example 34]	26 nM	100%	–	–
Cc1cccc(NS(=O)(=O)N2CC=C(c3ccc(C#N)cc3)CC2)n1 [Example 26, 4-(4-cyanophenyl)-N-(6-methylpyridin-2-yl)-3,6-dihydro-pyridine-1(2H)-sulfonamide]	1.6 nM	100%	–	–

Compound	Ki (11β-hsd-1 enzyme [1])	inhibition at 0.1 µM (11β-hsd-1 enzyme [2])	inhibition (11β-hsd-1 enzyme [2])	also measured
Cc1cc(C)nc(NS(=O)(=O)N2CCN(c3ccc(C(F)(F)F)cn3)CC2)c1 [Example 1, N-(4,6-dimethylpyridin-2-yl)-4-[5-(trifluoromethyl)pyridin-2-yl]piperazine-1-sufonamide]	4.1 nM	95.9%	–	–
CCc1cccc(NS(=O)(=O)N2CCC(Oc3ccc(Cl)cc3)CC2)n1 [Example 112, 4-(4-chlorophenoxy)-N-(6-ethylpyridin-2-yl)pipendine-1-sulfonamide]	18 nM	–	100%	–
CCc1cccc(NS(=O)(=O)N2CCN(c3ncccn3)CC2)n1 [Example 191, N-(6-ethylpyridin-2-yl)-4-pyrimidin-2-ylpiperazine-1-sulfonamide]	120 nM	–	90.5%	–
N#Cc1ccc(N2CCN(S(=O)(=O)Nc3ccc4ccccc4n3)CC2)nc1 [Example 13]	7.3 nM	94.9%	–	–
CCc1cccc(NS(=O)(=O)N2CCN(c3cccc(OC)n3)CC2)n1 [Example 183, N-(6-ethylpyridin-2-yl)-4-(6-methoxypyridin-2-yl)piperazine-1-sulfonamide]	11.5 nM	–	–	inhibition at 100 µM (11β-hsd-1 enzyme [2]; [3]): 100%
CCc1cccc(NS(=O)(=O)N2CCN(c3ccc(C#N)cn3)CC2)n1 [Example 3, 4-(5-cyanopyridin-2-yl)-N-(6-ethylpyridin-2-yl)piperazine-1-sulfonamide]	9 nM	88.5%	–	–
CCc1cccc(NS(=O)(=O)N2CCN(c3ccccn3)CC2)n1 [Example 194, N-(6-ethylpyridin-2-yl)-4-pyridin-2-ylpiperazine-1-sulfonamide]	37 nM	–	–	inhibition at 100 µM (11β-hsd-1 enzyme [2]; [3]): 81.4%
N#Cc1ccc(C2CCN(S(=O)(=O)Nc3cccc(N)n3)CC2)nc1 [Example 39]	16 nM	91%	–	–
CCc1cccc(NS(=O)(=O)N2CCN(c3nc4ncccc4o3)CC2)n1 [Example 145, N-(6-ethylpyridin-2-yl)-4-[13]oxazolo[45-b]pyridin-2-ylpiperazine-1-sulfanamide]	62 nM	–	79.2%	–
Cc1cc(C)nc(NS(=O)(=O)N2CCN(c3ccc(C#N)cn3)[C@H](C)C2)c1 [Example 28]	0.66 nM	100%	–	–
COCC1CCCN(S(=O)(=O)Nc2ccc3ccccc3n2)CC1 (stereo not shown) [Example 99, 4-(methoxymethyl)-N-quinolin-2-ylazepane-1-sulfonamide]	63 nM	–	77.6%	–
CCOC(=O)N1CCN(S(=O)(=O)Nc2cccc(C)n2)CC1 [Example 129, ethyl 4-{[(6-methylpyridin-2-yl)amino]sulfonyl}piperazine-1-carboxylate]	28 nM	–	86.6%	–
CCc1cccc(NS(=O)(=O)N2CCCN(c3ncccc3C#N)CC2)n1 [Example 187, 4-(3-cyanopyridin-2-yl)-N-(6-ethylpyridin-2-yl)-14-diazepane-1-sulfonamide]	160 nM	–	68.8%	–
CCc1cccc(NS(=O)(=O)N2CCc3conc3CC2)n1 [Example 181, N-(6-ethylpyridin-2-yl)-4578-tetrahydro-6H-isoxazolo[34-d]azepine-6-sulfonamide]	96 nM	–	83.4%	–
Cc1cc(Cl)cnc1N1CCN(S(=O)(=O)Nc2ccc3ncccc3n2)CC1 [Example 37, 4-(5-chloro-3-methylpyridin-2-yl)-N-1,5-naphthyridin-2-ylpiperazine-1-sulfonamide]	100 nM	80%	–	–
CCc1cccc(NS(=O)(=O)N2CCC(C)CC2)n1 [Example 117, N-(6-ethylpyridin-2-yl)-4-methylpiperidine-1-sulfonamide]	45 nM	–	65.2%	–
